Measurements as given in patent US10519133B2, “Vinyl compounds as FGFR and VEGFR inhibitors” (MEDSHINE DISCOVERY INC., priority 2015, dated 2019).
Like-named read-outs stand apart in the source and are kept apart here.

Legend:
[1] = biological target: T1, FGFR1 (Homo sapiens, UniProt P11362); assay: Z′-LYTE Detection Kinase Assay, in vitro enzymatic activity; format: biochemical; settings: 0.6 nM FGFR1, 2 uM Tyr4 peptide, 10 uM ATP, 60 min 23° C.
T1 construct: purchased Invitrogen PV4105
Description: To measure enzyme activity by Z′-LYTE™ Detection Kinase Assay, and to evaluate the inhibitory effect of the compounds on FGFR1 using IC50 value of the compounds as an indicator. […]
Reaction Buffer: 50 mM Hepes (pH 7.5), 10 mM MgCl2, 1 mM EGTA, 0.01% Brij-35, 1 mM DTT, 2 mM MnCl2 0.6 nM FGFR1, 2 uM Tyr4 peptide and 10 uM ATP in reaction buffer (50 mM Hepes, pH 7.5, 10 mM MgCl2, 0.01% BRIJ-35, 1 mM EGTA, 4 mM MnCl2, 2 mM DTT). a. Diluting the compounds with DMSO to 10 mM, 3-fold dilution, 11 gradients, duplicate wells. b. Diluting the compound by 1:25 into middle plate at Bravo Automatic Liquid Station, then transferring 2.5 ul to the reaction plate to ensure the final DMSO concentration to be 1%. c. Transferring 5 ul of enzyme/substrate buffer into each well d. Using Multidrop Liquid Workstation to sequentially add ATP solution to each well e. Centrifuging at 1000 rpm for 1 minute f. Placing the reaction plate in an incubator at 23° C. to react for 60 min. a. Preparing a 1:128 mixture of Development Regent B and Development Buffer b. Adding 5 ul to each well and centrifuging at 1000 rpm for 1 minute c. Placing the reaction plate in a thermostat (23° C.) after centrifuging for 90 minutes, removing and reading on Envision (Perkin Elmer) Plate Reader
D. Analyzing Data: Analyzing Data Using XLFIT (IDBS) and Calculating IC50 Values for the Compounds.

[2] = tested on: SNU-16 cell; assay: CellTiter-Glo Luminescent Cell Viability Assay; format: cell-based; settings: Homo sapiens, 72 h; SNU-16 cells, 3 days; read-out: SNU-16 IC50 (CellTiter-Glo Detection)
Description: To detect the change of intracellular ATP by CellTiter-Glo® Luminescent Cell Viability Assay, and to evaluate the inhibitory effect of the compounds on in vitro cell SNU-16 using IC50 value of the compounds as an indicator.
Cell line: SNU-16 cell strain d. Diluting SNU-16 with medium, adding the diluted cells to the 384 plate (Greiner. 781090) (50 μL/well, SNU-16 cell 750 cells/well) with multi-channel pipette. Placing the cell plate in a 37° C., 5% CO2 incubator overnight. […]
g. Diluting the compound with DMSO to 10 mM, 3-fold dilution, 11 gradients, duplicate wells. h. Transferring 2.4 ul of the compound to the middle plate added with 47.6 ul of cell culture media at Bravo Automatic Liquid Station. Then transferring 5 ul to the cell culture plate (55 ul) to ensure the final DMSO concentration to be 0.4%. […]
i. Placing the cell culture plate in 5% CO2 incubator at 37° C. to continue cultivating for 3 days. d. Balancing Cell Titer Glo Reagent to room temperature e. Taking 30 ul of Cell Titer Glo Reagent in a 1:2 ratio into each well and gently mixing for 2 minutes f. Placing the cell culture plate in an incubator (23° C.) for 10 minutes, taking out and centrifuging at 1000 rpm for 1 minute g. Reading on Envision (Perkin Elmer) Plate Reader.
H. Analyzing Data: Analyzing the Data Using XLFIT (IDBS) and Calculating IC50 Values for the Compounds.

[3] = Pharmacokinetics after intravenous and intragastric administration (Experimental Example 4); format: in vivo; settings: female Balb/c nude mice; for bioavailability / AUC(0-t) / Cmax / half-life / clearance / Vd: mouse, plasma; for Cmax: read-out: peak concentration (Cmax); for half-life: read-out: elimination half-life (T1/2) (converted); for clearance: read-out: plasma clearance (CL); for Vd: read-out: steady state apparent volume of distribution (Vdss)
Description: Experimental Procedure: A clear solution of the test compound in 20% DMSO/60% PEG400/20% water at 1 mg/ml was injected via the caudal vein into female Balb/c nude mice (fasted overnight, 7-9 weeks of age) with a dose of 1 mg/kg. The test compound suspended in 0.5% Methocel/0.2% Tween 80 at 1 mg/ml was administered by intragastric administration to female Balb/c nude mice (fasted overnight, 7-9 weeks of age) with a dose of 10 mg/kg. About 30 μL of blood collected from the jugular vein or caudal vein at 0.0833, 0.25, 0.5, 1.0, 2.0, 4.0, 8.0 and 24 h after administration in both groups of animals, were placed in anticoagulation tube with EDTA-K2 and the plasma was centrifuged. Plasma concentrations were determined by LC-MS/MS and related pharmacokinetic parameters were calculated using the non-compartmental model linear logarithmic trapezoidal method using WinNonlin™ Version 6.3 (Pharsight, Mountain View, Calif.) pharmacokinetic software.

[4] = po, single intragastric administration 10 mg/kg
[5] = po, single intragastric administration 10 mg/kg, read-out: AUC0-last
[6] = single intravenous injection 1.0 mg/kg, read-out: area under the plasma concentration curve (AUC0-last)
[7] = single intravenous injection 1.0 mg/kg
[8] = single intragastric administration 10 mg/kg

T1 sequence (P11362 22-822): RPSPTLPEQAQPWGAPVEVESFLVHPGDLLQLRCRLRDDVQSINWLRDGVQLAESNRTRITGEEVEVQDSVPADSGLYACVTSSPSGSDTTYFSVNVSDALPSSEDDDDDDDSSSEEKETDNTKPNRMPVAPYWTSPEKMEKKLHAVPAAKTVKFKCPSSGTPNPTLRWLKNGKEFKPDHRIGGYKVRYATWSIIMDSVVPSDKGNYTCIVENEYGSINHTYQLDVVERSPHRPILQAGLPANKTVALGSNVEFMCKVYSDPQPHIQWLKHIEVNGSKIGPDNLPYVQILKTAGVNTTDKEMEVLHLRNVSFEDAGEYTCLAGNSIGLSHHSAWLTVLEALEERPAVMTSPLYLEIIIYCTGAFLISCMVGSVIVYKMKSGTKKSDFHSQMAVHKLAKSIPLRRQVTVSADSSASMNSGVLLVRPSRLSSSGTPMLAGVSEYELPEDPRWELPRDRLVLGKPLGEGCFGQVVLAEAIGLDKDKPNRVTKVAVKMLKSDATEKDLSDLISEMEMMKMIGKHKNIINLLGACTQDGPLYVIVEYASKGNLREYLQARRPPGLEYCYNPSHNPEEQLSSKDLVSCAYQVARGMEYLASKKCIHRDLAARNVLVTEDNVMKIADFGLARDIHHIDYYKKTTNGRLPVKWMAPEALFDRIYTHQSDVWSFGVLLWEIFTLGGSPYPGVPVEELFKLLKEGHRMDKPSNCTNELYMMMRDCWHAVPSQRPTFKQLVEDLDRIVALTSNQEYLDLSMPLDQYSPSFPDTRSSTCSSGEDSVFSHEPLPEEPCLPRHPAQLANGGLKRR

## C[C@H](Oc1ccc2[nH]nc(/C=C(\F)c3ccc(CNC4CCOCC4)nc3)c2c1)c1c(Cl)cncc1Cl [Example 17]
[1]
  IC50: 0.05 to 1 µM
[2]
  IC50: ≤ 0.01 µM

## CC(Oc1ccc2[nH]nc(/C(F)=C/c3ccc(CN4CCOCC4)nc3)c2c1)c1c(Cl)cncc1Cl (racemic) [Example 1]
[1]
  IC50: 0.05 to 1 µM
[2]
  IC50: 0.01 to 1 µM

## C[C@@H](Oc1ccc2[nH]nc(/C=C(\F)c3ccc(CN4CCN(C)CC4)nc3)c2c1)c1c(Cl)cncc1Cl [Example 33]
[1]
  IC50: ≤ 0.01 µM
[2]
  IC50: ≤ 0.01 µM

## CC(Oc1ccc2[nH]nc(/C=C/c3cnc(CN4CCOCC4)cn3)c2c1)c1c(Cl)cncc1Cl (stereo not drawn) [Example 53]
[1]
  IC50: 0.01 to 0.05 µM
[2]
  IC50: ≤ 0.01 µM

## CC(Oc1ccc2[nH]nc(/C=C/c3cc(F)c(CN4CCOCC4)cc3C#N)c2c1)c1c(Cl)cncc1Cl (stereo not drawn) [Example 62]
[1]
  IC50: 0.05 to 1 µM
[2]
  IC50: ≤ 0.01 µM

## C[C@@H](Oc1ccc2[nH]nc(/C=C(\F)c3ccc(NC4CCOCC4)nc3)c2c1)c1c(Cl)cncc1Cl [Example 45]
[1]
  IC50: 0.05 to 1 µM
[2]
  IC50: ≤ 0.01 µM

## C[C@@H](Oc1ccc2[nH]nc(/C=C(\F)c3ccc(CN4CCNCC4)nc3)c2c1)c1c(Cl)cncc1Cl [Example 32]
[1]
  IC50: ≤ 0.01 µM
[2]
  IC50: ≤ 0.01 µM

## COC1CCN(Cc2ccc(/C(F)=C/c3n[nH]c4ccc(O[C@H](C)c5c(Cl)cncc5Cl)cc34)cn2)C1 (stereo partly drawn) [Example 34]
[1]
  IC50: ≤ 0.01 µM
[2]
  IC50: ≤ 0.01 µM

## C[C@@H](Oc1ccc2[nH]nc(/C=C(\F)c3ccc(CNC4CCOCC4)nc3)c2c1)c1c(Cl)cncc1Cl [WX_018]
[3]; [4]
  bioavailability: 30.1%
  Cmax: 479 ± 62.9 nM
[3]; [5]
  AUC(0-t): 1.65 ± 0.0401 µM·h
[3]; [6]
  AUC(0-t): 0.567 ± 0.0194 µM·h
[3]; [7]
  half-life: 1.57 ± 0.0286 h
  clearance: 53 ± 1.69 mL/min/kg
  Vd: 5.45 ± 0.491 L/kg
[3]; [8]
  peak time: 2.00 h

## C[C@@H](Oc1ccc2[nH]nc(/C=C(\F)c3ccc(NC4CCNCC4)nc3)c2c1)c1c(Cl)cncc1Cl [Example 47]
[1]
  IC50: ≤ 0.01 µM
[2]
  IC50: ≤ 0.01 µM

## C[C@@H](Oc1ccc2[nH]nc(/C=C/c3ccc(CNC4CCOCC4)nc3)c2c1)c1c(Cl)cncc1Cl [WX_015, reference compound]
[3]; [4]
  bioavailability: 11.4%
  Cmax: 134 ± 68.3 nM
[3]; [5]
  AUC(0-t): 0.439 ± 0.202 µM·h
[3]; [6]
  AUC(0-t): 0.386 ± 0.0883 µM·h
[3]; [7]
  half-life: 0.971 ± 0.461 h
  clearance: 83.5 ± 18.5 mL/min/kg
  Vd: 5.31 ± 0.268 L/kg
[3]; [8]
  peak time: 1.50 ± 0.866 h

## CC(Oc1ccc2[nH]nc(-c3ccc(NC(=O)CN4CCOCC4)nc3)c2c1)c1c(Cl)cncc1Cl (stereo not drawn) [Example 70]
[1]
  IC50: 0.05 to 1 µM
[2]
  IC50: ≤ 0.01 µM

## CC(Oc1ccc2[nH]nc(/C=C/c3ccc(CN(CCN(C)C)Cc4ccccc4)cc3)c2c1)c1c(Cl)cncc1Cl (stereo not drawn) [Example 86]
[1]
  IC50: 0.05 to 1 µM

## C[C@@H](Oc1ccc2[nH]nc(/C=C/c3ccc(CNC4CCOCC4)nn3)c2c1)c1c(Cl)cncc1Cl [Example 68]
[1]
  IC50: ≤ 0.01 µM

## CC(Oc1ccc2[nH]nc(/C=C/c3ccc(CN4CCOC[C@@H]4C)cc3)c2c1)c1c(Cl)cncc1Cl (stereo partly drawn) [Example 107]
[1]
  IC50: 0.05 to 1 µM

## C[C@@H](Oc1ccc2[nH]nc(/C=C(\F)c3ccc(CN4CCN(CCO)CC4)nc3)c2c1)c1c(Cl)cncc1Cl [Example 27]
[1]
  IC50: ≤ 0.01 µM

## CC(Oc1ccc2[nH]nc(/C=C/c3ccc(CNC4CCN(C)CC4)cc3)c2c1)c1c(Cl)cncc1Cl (stereo not drawn) [Example 76]
[1]
  IC50: ≤ 0.01 µM
[2]
  IC50: ≤ 0.01 µM

## C[C@@H](Oc1ccc2[nH]nc(/C=C/c3ccc(CN4CCOCC4)nn3)c2c1)c1c(Cl)cncc1Cl [Example 67]
[1]
  IC50: ≤ 0.01 µM

## CC(Oc1ccc2[nH]nc(/C=C/c3ccc(CN4CCOCC4)cc3Cl)c2c1)c1c(Cl)cncc1Cl (stereo not drawn) [Example 55]
[1]
  IC50: 0.05 to 1 µM

## C[C@@H](Oc1ccc2[nH]nc(-c3cccc(C(=O)N4CC[C@H](O)C4)c3)c2c1)c1c(Cl)cncc1Cl [Example 129]
[1]
  IC50: 0.05 to 1 µM

## CC(Oc1ccc2[nH]nc(/C=C/c3cncc(CN4CCOCC4)c3)c2c1)c1c(Cl)cncc1Cl (stereo not drawn) [Example 50]
[1]
  IC50: ≤ 0.01 µM

## C[C@@H](Oc1ccc2[nH]nc(/C=C/c3cccc(CNC4CCOCC4)c3)c2c1)c1c(Cl)cncc1Cl [Example 132]
[1]
  IC50: ≤ 0.01 µM

## CC(Oc1ccc2[nH]nc(/C=C/c3cnc(CN4CCOCC4)nc3)c2c1)c1c(Cl)cncc1Cl (stereo not drawn) [Example 51]
[1]
  IC50: ≤ 0.01 µM

## CC(Oc1ccc2[nH]nc(-c3ccc(C(=O)N4CCN(C)CC4)cc3)c2c1)c1c(Cl)cncc1Cl (stereo not drawn) [Example 116]
[1]
  IC50: 0.05 to 1 µM

## CC(Oc1ccc2[nH]nc(/C=C/c3ccc(CN4CCC(CO)CC4)cc3)c2c1)c1c(Cl)cncc1Cl (stereo not drawn) [Example 74]
[1]
  IC50: ≤ 0.01 µM

## CC(Oc1ccc2[nH]nc(/C=C/c3ccc(CN4CCOCC4)nc3)c2c1)c1c(Cl)cncc1Cl (stereo not drawn) [Example 48]
[1]
  IC50: ≤ 0.01 µM

## CC(Oc1ccc2[nH]nc(/C=C/c3ccc(CN4CC[C@@H](N(C)C)C4)cc3)c2c1)c1c(Cl)cncc1Cl (stereo partly drawn) [Example 73]
[1]
  IC50: ≤ 0.01 µM

## C[C@@H](Oc1ccc2[nH]nc(/C(F)=C\c3ccc(CN4CCOCC4)nc3)c2c1)c1c(Cl)cncc1Cl [Example 2]
[1]
  IC50: 0.05 to 1 µM

## CC(Oc1ccc2[nH]nc(/C=C/c3ccc(CNC4CCOCC4)cc3)c2c1)c1c(Cl)cncc1Cl (stereo not drawn) [Example 78]
[1]
  IC50: ≤ 0.01 µM

## CNC(=O)C1CCN(Cc2ccc(/C=C/c3n[nH]c4ccc(OC(C)c5c(Cl)cncc5Cl)cc34)cc2)CC1 (stereo not drawn) [Example 103]
[1]
  IC50: ≤ 0.01 µM

## CC(Oc1ccc2[nH]nc(-c3ccc(C(=O)N4CCC(N(C)C)CC4)cc3)c2c1)c1c(Cl)cncc1Cl (stereo not drawn) [Example 115]
[1]
  IC50: 0.01 to 0.05 µM

## C[C@@H](Oc1ccc2[nH]nc(/C=C(\F)c3ccc(CNC4CCOCC4)nc3)c2c1)c1ccncc1Cl [Example 142]
[1]
  IC50: 0.01 to 0.05 µM

## C[C@@H](Oc1ccc2[nH]nc(-c3cccc(C(=O)NC4CCOCC4)c3)c2c1)c1c(Cl)cncc1Cl [Example 127]
[1]
  IC50: 0.05 to 1 µM

## CC(Oc1ccc2[nH]nc(-c3ccc(C(=O)N4CC[C@@H](N(C)C)C4)cc3)c2c1)c1c(Cl)cncc1Cl (stereo partly drawn) [Example 121]
[1]
  IC50: 0.05 to 1 µM

## CC(Oc1ccc2[nH]nc(/C=C(\F)c3ccc(CNC4CCOCC4)nc3)c2c1)c1c(F)cccc1F (stereo not drawn) [Example 147]
[1]
  IC50: 0.05 to 1 µM

## CC(Oc1ccc2[nH]nc(/C=C/c3ccc(N4CCN(C)CC4)nc3)c2c1)c1c(Cl)cncc1Cl (stereo not drawn) [Example 71]
[1]
  IC50: 0.01 to 0.05 µM

## C[C@@H](Oc1ccc2[nH]nc(/C=C(\F)c3ccc(OCC4CCOCC4)nc3)c2c1)c1c(Cl)cncc1Cl [Example 41]
[1]
  IC50: 0.05 to 1 µM
[2]
  IC50: ≤ 0.01 µM

## C[C@@H](Oc1ccc2[nH]nc(/C=C(\F)c3ccc(CN4CCN(CC(=O)O)CC4)nc3)c2c1)c1c(Cl)cncc1Cl [Example 29]
[1]
  IC50: ≤ 0.01 µM
[2]
  IC50: 0.01 to 1 µM

## CC(Oc1ccc2[nH]nc(/C(F)=C/c3ccc(CN4CCOCC4)nn3)c2c1)c1c(Cl)cncc1Cl (stereo not drawn) [Example 13]
[1]
  IC50: 0.05 to 1 µM

## C[C@@H](Oc1ccc2[nH]nc(/C=C/c3ccc(CN4CC[C@H](O)C4)nc3)c2c1)c1c(Cl)cncc1Cl [Example 138]
[1]
  IC50: ≤ 0.01 µM

## C[C@@H](Oc1ccc2[nH]nc(/C=C(\F)c3ccc(CN4CCC(CO)CC4)nc3)c2c1)c1c(Cl)cncc1Cl [Example 21]
[1]
  IC50: ≤ 0.01 µM
[2]
  IC50: ≤ 0.01 µM

## CC(Oc1ccc2[nH]nc(/C=C/c3ccc(CN4CCC(c5ccccc5)CC4)cc3)c2c1)c1c(Cl)cncc1Cl (stereo not drawn) [Example 82]
[1]
  IC50: 0.05 to 1 µM

## CC(Oc1ccc2[nH]nc(/C=C(\F)c3ccc(CNC4CCOCC4)nc3)c2c1)c1ccc(F)cc1Cl (stereo not drawn) [Example 143]
[1]
  IC50: 0.05 to 1 µM

## C[C@@H](Oc1ccc2[nH]nc(-c3cccc(C(=O)N4CCC(CO)CC4)c3)c2c1)c1c(Cl)cncc1Cl [Example 130]
[1]
  IC50: 0.05 to 1 µM
